Like-named read-outs stand apart in the source and are kept apart here. Non-standard residues stand in square brackets, D forms with d. No end group written: not given here.
Legend:
NOD mice = experiment: spontaneous insulin-dependent diabetes in NOD mice, GAD65 derived peptide; assay type: in vivo, mouse
Excerpt: Non-obese diabetes (NOD) mice constitutes a suitable animal model for spontaneous insulin-dependent diabetes.
Adoptive transfer of Treg at the age of 2 weeks in NOD mice, namely before the onset of insulitis (3 weeks of age) is shown to fully prevent the onset of diabetes.
Direct immunisation of NOD mice with the peptide CRLC […] [SEQ ID.
Immunisation with peptide CRLC […] [SEQ ID.

polyclonal CD4 cells = experiment: apoptosis of polyclonal CD4 cells from peptide 524-543 immunised NOD mice; assay type: cell-based, mouse; conditions: APC loaded with peptide 524-543
Excerpt: NOD mice are immunised with peptide containing the thioredoxin consensus sequence in IFA (incomplete Freund adjuvans) from the age of 2 weeks. T cells are expanded in vitro to generate clones with regulatory properties.
The table in FIG. 23 represents the percentage of double positive cells (dead cells) after substraction of background values obtained without the regulatory population.

Patients = experiment: patients with birch pollen and apple allergy treated with peptide; assay type: in vivo, human; conditions: 3 SC injections
Excerpt: Patients presenting with allergic symptoms upon exposure to birch pollen together with an oro-pharyngeal allergy to ingestion of apple and treated by 3 SC injections of peptide CGPC […] [SEQ ID.

dendritic cells = assay type: cell-based
CD4+CD25(−) T cells = experiment: bystander suppression of anti-CD3 activated CD4+CD25(−) T cells; assay type: cell-based, mouse; conditions: 72 h, 2 concentrations (2mM, 4 mM)
Description: Bystander suppression assays. Target CD4+CD25− T cells and T helper clones were labelled with 125nM CFSE (Molecular Probes) for 15 minutes in PBS at 37° C. The reaction was stopped by washing the cells with PBS containing 30% FBS. These cells (3×10^5) were cocultured with 10^5 cytotoxic CD4+ T cell clones and cell depleted splenocytes with 1 μg/ml anti-CD3 antibody (eBioscience), For suppression of T helper clones, 10^5 cells were co-cultured with the same number of cytotoxic cells and T cell depleted splenocytes. After 48 h or 72 hours, cells were collected and analysed by flow cytometry.
First, the capacity of Tregs was assayed to suppress the proliferation of CD4+CD25(−) T cells after anti-CD3 activation in the presence of antigen-presenting cells. […] This effect was even more pronounced at 72 h for the second T cell clone (lower middle panel). […] The control experiment in which Treg was replaced by an identical number of unlabeled CD4+CD25(−) T cells (right panels) eliminated a possible artefact related to variable numbers of total cells in the culture medium.
Next, the kinetics of suppression were analysed. In the experiments shown in FIG. 14b, it can be seen that 48 and 70% of CFSE-labelled CD4+CD25(−) T cells express Annexin V after 18 and 24 h co-incubation with a cytolytic Treg (R3TB7), respectively, using the same assay system as in FIG. 14a. […]

WEHI cells [1] = experiment: apoptosis of peptide-loaded WEHI cells by cytolytic T cell clones, with inhibitors; assay type: cell-based, mouse; conditions: p21-35 loaded WEHI cells and a cytolytic T cell clone
Description: For inhibition of GZ-B activity, Z-AAD-CMK (Calbiochem) or 3,4-dichloroiso-coumarin (DCIC) (SIGMA) were added at indicated concentrations during all the co-culture period.
Experiments were carried out with p21-35-loaded CD11c dendritic (FIG. 13b: left panel) or WEHI cells (FIG. 13b: right panel). Upon incubation with R3TB7 virtually all dendritic cells (DC) or Wehi cells were induced into apoptosis as measured by caspase 3 activation.
Apoptosis can be induced by either the Fas-FasL pathway or by secretion of cytotoxic granules containing granzymes. Attempts were made to inhibit each of these pathways. Addition of increasing concentrations of an antibody towards FasL, or of granzyme B inhibitors, to a cell culture containing p21-35 loaded WEHI cells and a cytolytic T cell clone, increased the number of surviving WEHI cells in a dose-dependent manner (FIG. 13c). In a number of experiments it was shown that the anti-FasL antibody restored up to 80% of WEHI cell survival.
To further ascertain that APC lysis required direct contact with cytolytic T cells through MHC class II presentation of p21-35, an experiment was carried out in which two identical populations of Wehi cells were loaded with either p21-35 or with an irrelevant peptide (p71-85). These two populations could be distinguished by differential CFSE labelling. It can be seen from FIG. 13e that, while WEHI cells presenting p21-35 were fully lysed, only 40% of p71-85-loaded cells were affected.

C57BL/6 mice = experiment: prevention of multiple sclerosis by peptide immunisation; assay type: in vivo, mouse; conditions: 5 injections 20 μg in IFA at 14 days interval before disease induction
Description: In the model group, 3 C57BL/6 mice received, at day 0, SC injection of 100 μg MOG peptide/400 μg Mycobacterium butyricum in CFA and ip injection of 300 ng Bortetella pertussis in NaCl. At day +2, a second injection of B. pertussis was given.
In the prevention group, 5 C57BL/6 mice are immunised by 5 injections with 20 μg CSMOG peptide (CHGS […] [SEQ ID. NO: 32]), which contains the sequence motif C-X(2)-S, in IFA at 14 days interval before disease induction as in the model group. Control experiments are performed with the peptide [SEQ ID. NO: 33] lacking the motif at its N-terminus.
Scores were established as 0: no disease, 1: limp tail, 2: limp tail and loss of weight higher than 10%, 3: partial paralysis of hind limbs.

[2] = system: polyclonal CD4+CD25− cells; experiment: bystander suppression assay with CD4+CD25− cells from EAE animals; assay type: cell-based, mouse; conditions: 20 μg SC on aluminium hydroxide, three injections
Description: Groups of C57BL/6 mice are immunised subcutaneously (20 μg) with peptide (CHGS […] [SEQ ID. NO: 32], which contains the sequence motif C-X(2)-S) or control peptide ([…] [SEQ ID. NO: 33]) adsorbed onto aluminium hydroxide, Three injections are performed at 2-week intervals. Ten days after the last immunisation, mice are sacrificed and CD4+ T cells (2×10^6 cells) are prepared from the spleen using magnetic beads. CD4+ T cells are then stimulated in vitro by the MOG T cell epitope (20 μg/ml) presented by adherent spleen cells (2×10^6 cells).
After four re-stimulations, a T cell line is tested in a bystander suppression assay with, as target cells, polyclonal CD4+CD25− cells obtained from animals in which EAE (Experimental autoimmune encephalomyelitis) was effective.

CD4+ T cell = CD4+ T cell proliferation elicited by single amino acid p21-35 mutants (IP immunisation in alum); conditions: mouse, in vivo
Description: Based on findings showing that regulation can be more readily achieved with analogues of T cell epitopes, the capacity of various single amino acid p21-35 mutants to elicit CD4+ T cell after IP immunisation in alum was determined. […] The mutated form of mp21-35 (mp21-35Asn) was therefore use in the remainder of the experiments in this Example.

MHC II cleft = experiment: affinity for the MHC II cleft; assay type: binding
G221N = experiment: peptide processing assay with effector T cell clone G221N; assay type: cell-based, mouse
WEHI cells [3] = experiment: Wehi cell apoptosis by the G121 regulatory T cell clone with various forms of peptide; assay type: cell-based, mouse
spleen CD4+ T cells = conditions: mouse, in vivo, ip
BALB/c mice = conditions: mouse, in vivo

Molecule: CRLC KVAPVIKARMM (CRLCKVAPVIKARMM; modified fragment of glutamic acid decarboxylase (GAD65)) [SEQ ID. NO: 35]
- diabetes and insulitis, suppression by immunisation (NOD mice; after 15 weeks of age): suppress diabetes and insulitis
- diabetes and insulitis, prevention by direct immunisation (NOD mice; from the age of 2 weeks): fully prevent diabetes and lesions of insulitis
- apoptosis induced by polyclonal cells from immunised mice (polyclonal CD4 cells): induce apoptosis in polyclonal CD4 cells

Molecule: (CGPC)D-isomer LRAVESYLLAH ([dC]G[dP][dC]LRAVESYLLAH; cysteine pairing not given here) [SEQ ID. NO: 47]
- reaction to pollen exposure or apple contact (Patients): failed to react to either exposure to pollen or contact with apple
- apoptosis of dendritic cells by CD4+ T cells of treated subjects (dendritic cells; dendritic cells loaded with the Mal d 1 antigen): resulted in dendritic cell apoptosis
- apoptosis of dendritic cells by CD4+ T cells of treated subjects (dendritic cells; dendritic cells presenting the Bet v 1 antigen, three SC injections of 50 μg on alum): induced apoptosis of dendritic cells presenting the Bet v 1 antigen

Molecule: O=C(O)CN(CCOCCOCCN(CC(=O)O)CC(=O)O)CC(=O)O [EGTA]
- inhibition of the suppression of bystander T cells (CD4+CD25(−) T cells): Basically no inhibition
- restoration of WEHI cell survival (WEHI cells [1]): only partial restoration of Wehi cell survival

Molecule: CHGS YRSPFSRVVHLYR (CHGSYRSPFSRVVHLYR; reducing motif fused to MOG (Myelin Oligodendrocyte Glycoprotein) peptide) [SEQ ID. NO: 32]
- development of the syndrome (clinical score) (C57BL/6 mice): completely abolishes the development of the syndrome
- capacity of T cell line from immunised animals to induce death in target cells [2]: have the capacity to induce death in target cells

Molecule: IIe28Asn: IIe28Asn substitution of Der p 2 peptide p21-35 (CHGSEPCNIHRGKPF; UniProt P49278 38-52, looked up, fragment I28N)
- capacity to induce T cell proliferation (CD4+ T cell): only slightly reduced
- affinity for the MHC II cleft versus natural p21-35 (MHC II cleft): lower affinity

Molecule: QYIKANSKFIGITELGGCHGSEPCIIHRGKPF [mp21-35]
- requirement for internalisation, fusion with and acidification of late endosomes (G221N): required internalisation into antigen-presenting cells
- requirement for peptide processing (G221N): had to be processed for efficient presentation
- efficiency in inducing Wehi cell apoptosis in the presence of the G121 Treg, as compared to p21-35 (WEHI cells [3]): 100 fold
- Der p 2-induced proliferation of spleen CD4+ T cells (spleen CD4+ T cells): significant reduction
- suppression of airway inflammation and hyperreactivity (BALB/c mice): even more effective in suppressing airway inflammation and hyperreactivity

Reference: US11718650B2, “Immunogenic peptides and their use in immune disorders” (IMCYSE SA, priority 2006, dated 2023)
